In ChEMBL document CHEMBL5126669, “Discovery of 5,7-Dihydro-6H-pyrrolo[2,3-d]pyrimidin-6-ones as Highly Selective CDK2 Inhibitors” (ACS Med Chem Lett, 2022):
One block for each compound: values may come before it.

Assays:
[1] = target: Cyclin-dependent kinase 2 (Homo sapiens, UniProt P24941); assay: Inhibition of CDK2 in human COV318 cells incubated for overnight in presence of human whole blood by HTRF assay; assay type: cell-based
[2] = Intrinsic clearance in human liver microsomes at 1 uM measured upto 30 mins by LC/MS analysis; assay type: ADME, Microsome; conditions: read-out: CLH (converted)
[3] = Cmax in Sprague-Dawley rat at 3 mg/kg, po measured upto 24 hrs by LC-MS/MS analysis; assay type: ADME, organism-based; set-up: dose 3 mg/kg, time < 24 hrs, route po; conditions: in vivo
[4] = AUC in Sprague-Dawley rat at 3 mg/kg, po measured upto 24 hrs by LC-MS/MS analysis; assay type: ADME, organism-based; set-up: dose 3 mg/kg, time < 24 hrs, route po; conditions: in vivo
[5] = Oral bioavailability in Sprague-Dawley rat at 3 mg/kg measured upto 24 hrs by LC-MS/MS analysis; assay type: ADME, organism-based; conditions: in vivo
[6] = Hepatic blood flow in Sprague-Dawley rat at 0.5 mg/kg, iv measured upto 24 hrs by LC-MS/MS analysis; assay type: ADME, organism-based; conditions: in vivo
[7] = Volume of distribution at steady state in Sprague-Dawley rat at 0.5 mg/kg, iv measured upto 24 hrs by LC-MS/MS analysis; assay type: ADME, organism-based; conditions: in vivo, iv, 0.5 mg/kg, 24 h
[8] = Metabolic stability in Sprague-Dawley rat liver microsomes assessed as compound oxidation at 5 uM measured upto 30 mins by HPLC/MS analysis; assay type: ADME, Microsome; conditions: 0.5 h
[9] = Metabolic stability in Sprague-Dawley rat liver microsomes assessed as compound demethylation at 5 uM measured upto 30 mins by HPLC/MS analysis; assay type: ADME, Microsome; conditions: 0.5 h
[10] = Metabolic stability in Sprague-Dawley rat liver microsomes assessed as remaining parent compound at 5 uM measured upto 30 mins by HPLC/MS analysis; assay type: ADME, Microsome; conditions: 0.5 h
[11] = Metabolic stability in Cynomolgus monkey liver microsomes assessed as compound oxidation at 5 uM measured upto 30 mins by HPLC/MS analysis; assay type: ADME, Macaca fascicularis, Microsome; conditions: 0.5 h
[12] = Metabolic stability in Cynomolgus monkey liver microsomes assessed as compound demethylation at 5 uM measured upto 30 mins by HPLC/MS analysis; assay type: ADME, Macaca fascicularis, Microsome; conditions: 0.5 h
[13] = Metabolic stability in Cynomolgus monkey liver microsomes assessed as remaining parent compound at 5 uM measured upto 30 mins by HPLC/MS analysis; assay type: ADME, Macaca fascicularis, Microsome; conditions: 0.5 h
[14] = Metabolic stability in human liver microsomes assessed as compound oxidation at 5 uM measured upto 30 mins by HPLC/MS analysis; assay type: ADME, Microsome
[15] = Metabolic stability in human liver microsomes assessed as compound demethylation at 5 uM measured upto 30 mins by HPLC/MS analysis; assay type: ADME, Microsome; conditions: 0.5 h
[16] = Metabolic stability in human liver microsomes assessed as remaining parent compound at 5 uM measured upto 30 mins by HPLC/MS analysis; assay type: ADME, Microsome
Cytochrome P450 3A4 = Cytochrome P450 3A4 (Homo sapiens, UniProt P08684); assay: Inhibition of CYP3A4 (unknown origin) at >25 uM; assay type: ADME
Chain of Cytochrome P450 3A4 (P08684 whole entry): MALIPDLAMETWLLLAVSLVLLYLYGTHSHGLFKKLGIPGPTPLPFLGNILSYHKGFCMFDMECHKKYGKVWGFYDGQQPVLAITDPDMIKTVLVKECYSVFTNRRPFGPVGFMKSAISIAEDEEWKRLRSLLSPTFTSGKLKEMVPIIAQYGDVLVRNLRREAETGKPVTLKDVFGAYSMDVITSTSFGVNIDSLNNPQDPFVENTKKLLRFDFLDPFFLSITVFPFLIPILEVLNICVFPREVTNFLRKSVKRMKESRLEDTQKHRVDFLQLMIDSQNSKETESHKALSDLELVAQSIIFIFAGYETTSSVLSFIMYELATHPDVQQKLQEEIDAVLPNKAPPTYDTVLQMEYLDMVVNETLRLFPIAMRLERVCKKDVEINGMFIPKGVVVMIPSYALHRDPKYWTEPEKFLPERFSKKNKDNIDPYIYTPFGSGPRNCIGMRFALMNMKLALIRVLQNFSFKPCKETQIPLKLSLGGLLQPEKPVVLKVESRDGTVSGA

hERG (KCNH2) = hERG (KCNH2) (Homo sapiens, UniProt Q12809); assay: Displacement of [3H]Dofetilide from human ERG at 10 uM incubated for 24 hrs by filter binding assay relative to control; assay type: toxicity; conditions: probe [3H]dofetilide
Chain of hERG (KCNH2) (Q12809 whole entry): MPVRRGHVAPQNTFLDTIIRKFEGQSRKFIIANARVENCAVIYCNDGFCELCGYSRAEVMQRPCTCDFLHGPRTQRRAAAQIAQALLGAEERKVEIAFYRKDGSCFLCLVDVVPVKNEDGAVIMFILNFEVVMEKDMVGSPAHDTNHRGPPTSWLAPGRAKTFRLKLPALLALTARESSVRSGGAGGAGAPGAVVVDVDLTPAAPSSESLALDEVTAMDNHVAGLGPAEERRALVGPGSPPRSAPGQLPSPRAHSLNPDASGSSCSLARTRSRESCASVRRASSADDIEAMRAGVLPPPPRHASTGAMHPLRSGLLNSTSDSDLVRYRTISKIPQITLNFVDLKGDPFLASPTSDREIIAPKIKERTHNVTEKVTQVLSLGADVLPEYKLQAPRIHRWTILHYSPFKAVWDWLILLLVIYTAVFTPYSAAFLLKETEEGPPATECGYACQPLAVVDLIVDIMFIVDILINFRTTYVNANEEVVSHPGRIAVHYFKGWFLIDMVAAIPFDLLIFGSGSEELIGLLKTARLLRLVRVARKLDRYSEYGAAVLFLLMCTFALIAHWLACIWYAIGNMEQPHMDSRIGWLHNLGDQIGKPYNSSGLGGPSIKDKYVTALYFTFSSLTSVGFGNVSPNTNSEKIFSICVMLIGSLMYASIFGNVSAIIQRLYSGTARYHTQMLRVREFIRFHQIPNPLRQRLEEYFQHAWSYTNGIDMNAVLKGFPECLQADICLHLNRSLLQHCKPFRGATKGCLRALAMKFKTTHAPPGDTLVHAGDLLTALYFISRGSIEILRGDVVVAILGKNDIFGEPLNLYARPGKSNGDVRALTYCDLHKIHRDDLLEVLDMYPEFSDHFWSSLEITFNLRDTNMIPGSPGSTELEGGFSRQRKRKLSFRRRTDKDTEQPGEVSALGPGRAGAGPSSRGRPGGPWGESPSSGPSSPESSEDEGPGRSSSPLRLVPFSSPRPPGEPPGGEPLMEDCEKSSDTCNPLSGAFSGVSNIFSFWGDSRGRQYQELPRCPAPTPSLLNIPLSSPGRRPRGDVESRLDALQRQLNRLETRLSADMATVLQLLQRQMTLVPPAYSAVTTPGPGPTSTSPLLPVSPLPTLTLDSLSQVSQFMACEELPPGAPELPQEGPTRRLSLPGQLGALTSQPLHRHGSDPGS

Cytochrome P450 1A2 = target: T1, Cytochrome P450 1A2 (Homo sapiens, UniProt P05177); assay: Inhibition of CYP1A2 (unknown origin) at >25 uM; assay type: ADME
T1 sequence (P05177 whole entry): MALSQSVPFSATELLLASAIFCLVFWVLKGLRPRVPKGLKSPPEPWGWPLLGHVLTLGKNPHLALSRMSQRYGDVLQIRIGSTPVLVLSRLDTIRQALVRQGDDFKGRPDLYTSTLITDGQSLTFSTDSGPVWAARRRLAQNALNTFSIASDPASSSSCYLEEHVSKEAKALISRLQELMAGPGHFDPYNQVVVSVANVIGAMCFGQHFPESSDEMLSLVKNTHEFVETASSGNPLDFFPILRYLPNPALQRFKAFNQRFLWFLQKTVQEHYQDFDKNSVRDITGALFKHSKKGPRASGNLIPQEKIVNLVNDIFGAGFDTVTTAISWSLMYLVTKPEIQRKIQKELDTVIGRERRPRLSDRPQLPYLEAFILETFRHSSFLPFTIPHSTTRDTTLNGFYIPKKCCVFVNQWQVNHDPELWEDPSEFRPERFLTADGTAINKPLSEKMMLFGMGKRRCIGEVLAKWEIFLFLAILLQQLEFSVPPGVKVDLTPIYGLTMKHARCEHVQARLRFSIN

Cytochrome P450 2C8 = target: T2, Cytochrome P450 2C8 (Homo sapiens, UniProt P10632); assay: Inhibition of CYP2C8 (unknown origin) at >25 uM; assay type: ADME
T2 sequence (P10632 whole entry): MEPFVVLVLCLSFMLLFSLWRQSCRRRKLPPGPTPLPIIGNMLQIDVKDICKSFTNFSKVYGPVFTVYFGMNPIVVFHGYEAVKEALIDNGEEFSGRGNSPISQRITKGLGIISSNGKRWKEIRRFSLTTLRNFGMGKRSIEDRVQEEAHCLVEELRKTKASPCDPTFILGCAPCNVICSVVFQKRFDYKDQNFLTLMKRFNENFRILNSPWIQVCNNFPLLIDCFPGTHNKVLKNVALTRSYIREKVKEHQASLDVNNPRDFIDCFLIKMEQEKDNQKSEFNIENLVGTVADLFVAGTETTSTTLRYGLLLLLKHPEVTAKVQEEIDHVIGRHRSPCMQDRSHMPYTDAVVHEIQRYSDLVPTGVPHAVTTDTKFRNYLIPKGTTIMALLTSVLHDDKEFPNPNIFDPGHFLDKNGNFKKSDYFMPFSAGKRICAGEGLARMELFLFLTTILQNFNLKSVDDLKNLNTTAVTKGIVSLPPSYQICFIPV

Cytochrome P450 2C19 = Cytochrome P450 2C19 (Homo sapiens, UniProt P33261); assay: Inhibition of CYP2C19 (unknown origin) at >25 uM; assay type: ADME
Chain of Cytochrome P450 2C19 (P33261 whole entry): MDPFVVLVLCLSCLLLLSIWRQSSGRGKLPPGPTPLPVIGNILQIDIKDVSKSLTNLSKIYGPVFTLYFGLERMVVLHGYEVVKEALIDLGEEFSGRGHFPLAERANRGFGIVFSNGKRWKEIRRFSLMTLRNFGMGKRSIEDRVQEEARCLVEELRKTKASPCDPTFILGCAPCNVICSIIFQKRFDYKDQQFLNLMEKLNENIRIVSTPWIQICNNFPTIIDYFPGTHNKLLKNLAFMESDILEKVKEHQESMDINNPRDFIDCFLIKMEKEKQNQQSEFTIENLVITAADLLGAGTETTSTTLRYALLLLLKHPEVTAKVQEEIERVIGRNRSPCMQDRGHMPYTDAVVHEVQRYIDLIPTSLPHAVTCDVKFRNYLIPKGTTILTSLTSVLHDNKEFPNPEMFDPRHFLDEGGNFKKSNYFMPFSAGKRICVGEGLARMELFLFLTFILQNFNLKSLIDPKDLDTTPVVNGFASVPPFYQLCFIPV

Cytochrome P450 2B6 = target: T3, Cytochrome P450 2B6 (Homo sapiens, UniProt P20813); assay: Inhibition of CYP2B6 (unknown origin) at >25 uM; assay type: ADME
T3 sequence (P20813 whole entry): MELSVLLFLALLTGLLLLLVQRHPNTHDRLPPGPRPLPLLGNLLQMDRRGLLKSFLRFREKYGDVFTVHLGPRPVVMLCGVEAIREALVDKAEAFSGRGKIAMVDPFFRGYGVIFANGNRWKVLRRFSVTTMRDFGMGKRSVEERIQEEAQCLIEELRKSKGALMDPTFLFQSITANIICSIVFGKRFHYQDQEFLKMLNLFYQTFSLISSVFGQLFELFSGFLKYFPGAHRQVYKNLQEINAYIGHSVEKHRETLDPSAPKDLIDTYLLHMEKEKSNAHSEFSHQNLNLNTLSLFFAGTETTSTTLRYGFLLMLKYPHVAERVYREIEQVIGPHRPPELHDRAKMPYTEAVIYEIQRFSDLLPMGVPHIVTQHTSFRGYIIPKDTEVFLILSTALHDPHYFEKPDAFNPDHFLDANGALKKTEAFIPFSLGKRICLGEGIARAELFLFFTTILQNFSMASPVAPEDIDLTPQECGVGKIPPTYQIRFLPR

Cytochrome P450 2C9 = Cytochrome P450 2C9 (Homo sapiens, UniProt P11712); assay: Inhibition of CYP2C9 (unknown origin) at >25 uM; assay type: ADME
Chain of Cytochrome P450 2C9 (P11712 whole entry): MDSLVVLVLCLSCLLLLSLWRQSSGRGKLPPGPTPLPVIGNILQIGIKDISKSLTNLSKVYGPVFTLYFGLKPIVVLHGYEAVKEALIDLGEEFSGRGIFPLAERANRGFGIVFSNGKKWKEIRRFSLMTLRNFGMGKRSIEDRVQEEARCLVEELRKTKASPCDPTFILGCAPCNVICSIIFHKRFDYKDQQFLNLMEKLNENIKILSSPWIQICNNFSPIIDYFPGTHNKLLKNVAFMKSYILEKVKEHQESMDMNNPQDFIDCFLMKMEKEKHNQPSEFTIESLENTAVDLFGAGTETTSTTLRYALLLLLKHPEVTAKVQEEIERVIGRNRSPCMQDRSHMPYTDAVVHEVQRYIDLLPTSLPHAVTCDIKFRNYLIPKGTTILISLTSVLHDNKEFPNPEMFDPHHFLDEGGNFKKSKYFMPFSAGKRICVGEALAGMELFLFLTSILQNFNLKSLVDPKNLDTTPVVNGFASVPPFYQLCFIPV

Cytochrome P450 2D6 = Cytochrome P450 2D6 (Homo sapiens, UniProt P10635); assay: Inhibition of CYP2D6 (unknown origin) at >25 uM; assay type: ADME
Chain of Cytochrome P450 2D6 (P10635 whole entry): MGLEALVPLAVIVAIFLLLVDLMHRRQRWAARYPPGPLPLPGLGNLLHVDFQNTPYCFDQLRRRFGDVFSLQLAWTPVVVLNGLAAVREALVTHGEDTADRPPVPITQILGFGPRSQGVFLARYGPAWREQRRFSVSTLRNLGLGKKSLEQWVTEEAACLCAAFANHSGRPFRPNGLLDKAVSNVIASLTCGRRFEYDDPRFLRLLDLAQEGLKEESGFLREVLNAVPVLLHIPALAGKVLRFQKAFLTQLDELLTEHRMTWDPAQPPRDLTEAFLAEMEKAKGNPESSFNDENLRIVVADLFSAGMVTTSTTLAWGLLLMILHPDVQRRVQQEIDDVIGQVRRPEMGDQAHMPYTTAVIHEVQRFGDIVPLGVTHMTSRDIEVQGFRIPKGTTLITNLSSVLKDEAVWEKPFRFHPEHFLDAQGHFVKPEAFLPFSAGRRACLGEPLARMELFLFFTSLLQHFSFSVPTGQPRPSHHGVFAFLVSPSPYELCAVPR

[17] = Solubility of compound; assay type: physicochemical
[18] = target: Cyclin-dependent kinase 2/cyclin E1 (Homo sapiens, UniProt P24941); assay: Inhibition of recombinant human N-terminal GST-tagged full-length CDK2/Flag-tagged cyclinE1 expressed in baculovirus expression system using eIF4E-binding protein-1 peptide as substrate incubated for 1 hr in presence of ATP by HTRF assay
Homo sapiens [19] = species on record: Homo sapiens; assay: Selectivity ratio of IC50 for inhibition of CDK1/cyclin B (unknown origin) to IC50 for inhibition recombinant human N-terminal GST-tagged full-length CDK2/Flag-tagged cyclinE1 expressed in baculovirus expression system
Homo sapiens [20] = species on record: Homo sapiens; assay: Selectivity ratio of IC50 for inhibition of CDK4/cyclin D1 (unknown origin) to IC50 for inhibition recombinant human N-terminal GST-tagged full-length CDK2/Flag-tagged cyclinE1 expressed in baculovirus expression system
Homo sapiens [21] = species on record: Homo sapiens; assay: Selectivity ratio of IC50 for inhibition of CDK6/cyclin D1 (unknown origin) to IC50 for inhibition recombinant human N-terminal GST-tagged full-length CDK2/Flag-tagged cyclinE1 expressed in baculovirus expression system
Homo sapiens [22] = species on record: Homo sapiens; assay: Selectivity ratio of IC50 for inhibition of CDK4 (unknown origin) to IC50 for inhibition recombinant human N-terminal GST-tagged full-length CDK2/Flag-tagged cyclinE1 expressed in baculovirus expression system; conditions: tested as the 2H-labelled form
Homo sapiens [23] = species on record: Homo sapiens; assay: Selectivity ratio of IC50 for inhibition of CDK1 (unknown origin) to IC50 for inhibition recombinant human N-terminal GST-tagged full-length CDK2/Flag-tagged cyclinE1 expressed in baculovirus expression system; conditions: tested as the 2H-labelled form
Homo sapiens [24] = species on record: Homo sapiens; assay: Selectivity ratio of IC50 for inhibition of CDK9 (unknown origin) to IC50 for inhibition recombinant human N-terminal GST-tagged full-length CDK2/Flag-tagged cyclinE1 expressed in baculovirus expression system; conditions: tested as the 2H-labelled form
Homo sapiens [25] = species on record: Homo sapiens; assay: Selectivity ratio of IC50 for inhibition of CDK6 (unknown origin) to IC50 for inhibition recombinant human N-terminal GST-tagged full-length CDK2/Flag-tagged cyclinE1 expressed in baculovirus expression system; conditions: tested as the 2H-labelled form

IC50 [1]: 746 nM | predicted hepatic clearance at 1 µM [2]: < 8.33 mL/min/kg | Cmax [3]: 752 nM | AUC at 24 h [4]: 0.666 µM·h | bioavailability [5]: 92% | QH [6]: > 100% | Vdss [7]: 3.2 L/kg | Drug metabolism [8]: 54% | Drug metabolism [9]: 23% | Stability [10]: 4.4% | Drug metabolism [11]: 12% | Drug metabolism [12]: 71% | Stability [13]: 20% | metabolised at 0.5 h, 5 µM ([14]; liver microsomes, read-out: Drug metabolism): 5% | Drug metabolism [15]: 10% | remaining at 0.5 h, 5 µM ([16]; liver microsomes, read-out: Stability): 85% | inhibition (INH) (Cytochrome P450 3A4): Active | inhibition (INH) (Cytochrome P450 1A2): Active | inhibition (INH) (Cytochrome P450 2C8): Active | inhibition (INH) (Cytochrome P450 2C19): Active | inhibition (INH) (Cytochrome P450 2B6): Active | inhibition (INH) (Cytochrome P450 2C9): Active | inhibition (INH) (Cytochrome P450 2D6): Active | solubility [17]: > 400 µg/mL
SMILES: [2H]C([2H])([2H])NS(=O)(=O)c1ccc(Nc2ncc3c(n2)N([C@@H]2CCC[C@@]2(C)O)C(=O)C32CC2)cc1 (relative stereo)
inhibition at 24 h, 10 µM (hERG (KCNH2)): 16%

IC50 [18]: 1.2 nM | Ratio IC50 (Homo sapiens [19]): 520 | Ratio IC50 (Homo sapiens [20]): 230 | Ratio IC50 (Homo sapiens [21]): 88 | IC50 [1]: 350 nM | predicted hepatic clearance at 1 µM [2]: 13.3 mL/min/kg | Drug metabolism [8]: 74% | Drug metabolism [9]: 35% | Stability [10]: 0.1% | Drug metabolism [11]: 8% | Drug metabolism [12]: 98% | Stability [13]: 0.1% | Drug metabolism ([14]; microsomes, 0.5 h, 5 µM): 6% | Drug metabolism [15]: 26% | Stability ([16]; microsomes, 0.5 h, 5 µM): 68% | Ratio IC50 (Homo sapiens [22]): 240 | Ratio IC50 (Homo sapiens [23]): 490 | Ratio IC50 (Homo sapiens [24]): 2800 | Ratio IC50 (Homo sapiens [25]): 95
SMILES: CNS(=O)(=O)c1ccc(Nc2ncc3c(n2)N([C@@H]2CCC[C@@]2(C)O)C(=O)C32CC2)cc1 (relative stereo)
